# In patent US5256528A, “Magenta image-dye couplers of improved hue” (Eastman Kodak Company, priority 1992, dated 1993):
# Legend:
# [1] = Absorption spectra of dye-containing processed films (λmax), C-41 process; format: physicochemical
# Experimental: (§1) Dispersions of the comparative couplers B1-B3 and B8 and of the couplers of this invention M1-M3 were prepared by dissolving the coupler in the coupler solvent S1 plus the auxiliary solvent 2-(2-butoxyethoxy)ethyl acetate and then dispersing this oil phase in an aqueous solution of gelatin and surfactant using an ultrasonic probe. The dispersions were chilled and washed for 6 hr at 4° C. to remove the auxiliary solvent. The dispersions contained approximately 8.8% coupler, 4.4% S1 and 6% gelatin by weight.
# (§2) The dispersions were coated at 1.04 mmole/sq m together with a silver bromoiodide emulsion on a transparent acetate support in the format shown below. Hardened film strips were exposed through a 0-4 neutral density stepwedge and daylight V and WRATTEN 9 filters and subjected to a standard C-41 process at 37.8° C. The process consists of 2.5 min in color developer, 4 min in a ferric EDTA/PDTA bleach solution, 2 min wash, 4 min fix and 2 min final wash. Photographic gamma values were obtained from the slopes of plots of status M green density vs. exposure for processed samples. Absorption spectra of the dye-containing processed films were measured at a density near 1.0 on a spectrophotometer and the wavelengths of maximum absorption (λ max values) were recorded.
# (§3) BVSM* Hardener 0.06 g/sq m
# (§4) Coupler Solvent S1 1/2 coupler laydown
# (§5) Dispersions of couplers B3, M1 and M5 with S1 (1:0.5) were prepared and coated as in Example 2. Film strips of these coatings were exposed, processed and analyzed as in Example 2. λmax values and gamma values associated with these film compositions are listed in Table III. This series further illustrates the use of electron-withdrawing substituents to obtain magenta dyes of the proper hue.
# (§6) Dispersions of the comparative couplers B4, B5 and B8 and the couplers of this invention M6-M11 were prepared and coated as in Example 2. The coupler solvent S1 was again used at a 1:0.5 coupler:S1 weight ratio. Film strips of the hardened coatings were exposed, processed and analyzed as in Example 2. Couplers B4 and M6-M8 have a strongly electron-withdrawing alkoxycarbonyl substituent in the R2 position and couplers B5 and M9-M11 have a strongly electron-withdrawing alkylsulfonyl group at R2. […] The couplers of this invention, M6-M11, which have strong electron-withdrawing groups in each ring, yield dyes having the desired bathochromic hues, as shown by the λmax values. The gamma values obtained with the couplers of this invention are suitably high to be useful in photographic materials, as indicated by comparison to the gamma obtained from the commercial coupler B8.
# (§7) Dispersions of the comparison couplers B6 and B7, and of the couplers of this invention M12-M17, were prepared using the coupler solvent Sl as in Example 2. These were coated as in Example 2, and hardened film strips were exposed, processed and analyzed as in Example 2. The results obtained are summarized in Table V. In this example all of the couplers have sulfamoyl or alkylsulfonyl substituents in the R1 position and the R2 substituent on the 3-anilino ring is varied. Comparative couplers B6 and B7 have chloro substituents at R2, whereas M12-M17 of this invention have strong electron withdrawing R2 groups. […] The gamma values of the couplers of this invention are similar to those of the comparative couplers.
# [2] = Photographic gamma (slope of status M green density vs. exposure), C-41 process
# Experimental: as §1, §2, §3, §4, §5, §6, §7
# [3] = Continued coupling in bleach, delta Dmin process B - process A; settings: Table VI, no aniline, no DIR coupler
# Experimental: (§8) Dispersions of the coupler B3 were prepared with coupler solvents S1 and C2, both at a 1:1 B3:coupler solvent weight ratio. Dispersions of coupler M1 were prepared with C2 at 1:1 and with C2 plus aniline A1 at a 1:0.8:0.2 M1:C2:A1 weight ratio. These dispersions were prepared by dissolving the coupler in a mixture of coupler solvent, aniline A1 (optional) and cyclohexanone. The coupler:cyclohexanone weight ratio was 1:3. This mixture was then added to an aqueous solution of gelatin and ALKANOL XC surfactant. The two-phase mixture was then passed through a colloid mill to disperse the coupler-containing oil phase in the aqueous phase in the form of small droplets. The dispersion was then chilled, noodled and washed to remove the auxiliary cyclohexanone solvent. The resulting dispersions contained approximately 2% by weight of coupler and 6% by weight of gelatin.
# (§9) The dispersions were then coated on a transparent support together with a silver bromoiodide emulsion in the format shown below. Coatings were then exposed through a stepwedge and subjected to variants of the KODAK FLEXICOLOR (C-41) process described below. One set of film samples was processed with an acetic acid stop bath between the development and bleach steps (process A). A second set of films was processed without a stop bath and with the bleach pH adjusted to 6.0 instead of the normal 5.25 (process B). This is intended to simulate behavior in a "seasoned" bleach whose pH increases due to carry-over of base from the developer solution. The difference between Dmin values (densities obtained in unexposed portions of the films) between process A and process B are due to continued coupling between coupler and developer carried over into the bleach. Both the lack of a stop bath and the high bleach pH in process B aggravate continued coupling. It is desirable to minimize Dmin density and Dmin variability due to continued coupling. Since conditions similar to process B are encountered in simplified trade processing, it is desirable to minimize continued coupling, as measured by the delta Dmin of process B - process A. These delta Dmin values are listed in Table VI along with λmax values and gamma values (obtained from plots of status M green density versus exposure).
# (§10) 2.6 g/sq m Gelatin + 1.75 weight % BVSME* Hardener
# (§11) Coupler Solvent + or - A1 @ equal weight to coupler
# (§12) 1.08 g/sq m Silver Emulsion
# (§13) //////Cellulose Acetate Butyrate Support//////
# or Standard C-41 Bleach II
# 2B Bleach II Adjusted to pH = 6.0
# (§14) Also included in this comparison was a 1:1 dispersion of M1 plus C2 to which was added the DIR coupler D1 (shown above) at a M1:D1 weight ratio of 1:0.045.
# [4] = Photographic gamma with coupler solvents and addenda (KODAK FLEXICOLOR C-41 variants); settings: Table VI, no aniline, no DIR coupler
# Experimental: as §8
# as §9, with “Both the lack of a stop bath and the high bleach pH in process B aggravate continued coupling. It is desirable to minimize Dmin density and Dmin variability due to continued coupling.” left out, “exposure). […]” for “exposure).”
# [5] = λmax with coupler solvents and addenda (KODAK FLEXICOLOR C-41 variants); format: physicochemical; settings: Table VI, no aniline, no DIR coupler
# Experimental: as §8, §9, §10, §11, §12, §13, §14
# [6] = Table V, Example 6, coupler solvent S1
# [7] = Table I, Example 2, coupler:S1 1:0.5
# [8] = Table IV, Example 5, coupler:S1 1:0.5
# [9] = Table III, Example 4, coupler:S1 1:0.5
smiles,measurement,setting,value
CCCCCCCCCCCCNS(=O)(=O)c1cc(Cl)c(N2N=C(Nc3ccc(S(=O)(=O)N4CCOCC4)cc3Cl)C(Sc3cc(C(C)(C)CC(C)(C)C)ccc3OCCCC)C2=O)c(Cl)c1 (stereo not shown) [Coupler M12],λmax(nm) (+-0.5),[1]; [6],549.5 nm
same,Gamma,[2]; [6],3.1
CCCCCCCCCCCCNS(=O)(=O)c1ccc(NC2=NN(c3c(Cl)cc(S(=O)(=O)N4CCOCC4)cc3Cl)C(=O)C2Sc2ccccc2N(C)C(=O)CCCCCCCCCCC)c(Cl)c1 (stereo not shown) [Coupler M2],λmax(nm) (+-0.5),[1]; [7],551.5 nm
same,Gamma,[2]; [7],3.9
"CCCCCCCCCCCCS(=O)(=O)c1ccc(NC2=NN(c3c(Cl)cc(Cl)cc3Cl)C(=O)C2Sc2cc(C(C)(C)CC(C)(C)C)ccc2OCCCC)c(Cl)c1 (stereo not shown) [Coupler B5, reference compound]",Gamma,[2]; [8],4.2
CCCCCCCCCCCCNS(=O)(=O)c1ccc(NC2=NN(c3c(Cl)cc(S(=O)(=O)N4CCOCC4)cc3Cl)C(=O)C2Sc2ccccc2N(CCCCCCCCCCCC)C(=O)C(C)(C)C)c(Cl)c1 (stereo not shown) [Coupler M3],λmax(nm) (+-0.5),[1]; [7],551.0 nm
same,Gamma,[2]; [7],4.4
CCCCCCCCCCCCOC(=O)c1ccc(NC2=NN(c3c(Cl)cc(C#N)cc3Cl)C(=O)C2Sc2cc(C(C)(C)CC(C)(C)C)ccc2OCCCC)c(Cl)c1 (stereo not shown) [Coupler M8],λmax(nm) (+-0.5),[1]; [8],548.5 nm
same,Gamma,[2]; [8],4.1
CCCCCCCCCCCCS(=O)(=O)c1cc(Cl)c(N2N=C(Nc3ccc(C#N)cc3Cl)C(Sc3cc(C(C)(C)CC(C)(C)C)ccc3OCCCC)C2=O)c(Cl)c1 (stereo not shown) [Coupler M17],λmax(nm) (+-0.5),[1]; [6],550.5 nm
same,Gamma,[2]; [6],3.5
CCCCCCCCCCCCS(=O)(=O)c1ccc(NC2=NN(c3c(Cl)cc(S(=O)(=O)N4CCOCC4)cc3Cl)C(=O)C2Sc2cc(C(C)(C)CC(C)(C)C)ccc2OCCCC)c(Cl)c1 (stereo not shown) [Coupler M9],λmax(nm) (+-0.5),[1]; [8],551.0 nm
same,Gamma,[2]; [8],3.2
"CCCCCCCCCCCCNS(=O)(=O)c1ccc(NC2=NN(c3c(Cl)cc(OC)cc3Cl)C(=O)C2Sc2cc(C(C)(C)CC(C)(C)C)ccc2OCCCC)c(Cl)c1 (stereo not shown) [Coupler B1, reference compound]",λmax(nm) (+-0.5),[1]; [7],539.5 nm
same,Gamma,[2]; [7],4.8
CCCCCCCCCCCCNS(=O)(=O)c1cc(Cl)c(N2N=C(Nc3ccc(C#N)cc3Cl)C(Sc3cc(C(C)(C)CC(C)(C)C)ccc3OCCCC)C2=O)c(Cl)c1 (stereo not shown) [Coupler M14],λmax(nm) (+-0.5),[1]; [6],550.5 nm
same,Gamma,[2]; [6],3.1
CCCCCCCCCCCCNS(=O)(=O)c1cc(Cl)c(N2N=C(Nc3ccc(S(C)(=O)=O)cc3Cl)C(Sc3cc(C(C)(C)CC(C)(C)C)ccc3OCCCC)C2=O)c(Cl)c1 (stereo not shown) [Coupler M13],λmax(nm) (+-0.5),[1]; [6],549.5 nm
same,Gamma,[2]; [6],3.9
CCCCCCCCCCCCS(=O)(=O)c1cc(Cl)c(N2N=C(Nc3ccc(S(C)(=O)=O)cc3Cl)C(Sc3cc(C(C)(C)CC(C)(C)C)ccc3OCCCC)C2=O)c(Cl)c1 (stereo not shown) [Coupler M16],λmax(nm) (+-0.5),[1]; [6],550.5 nm
same,Gamma,[2]; [6],3.2
"CCCCCCCCCCCCS(=O)(=O)c1cc(Cl)c(N2N=C(Nc3ccc(Cl)cc3Cl)C(Sc3cc(C(C)(C)CC(C)(C)C)ccc3OCCCC)C2=O)c(Cl)c1 (stereo not shown) [Coupler B7, reference compound]",Gamma,[2]; [6],3.3
CCCCCCCCCCCCNS(=O)(=O)c1ccc(NC2=NN(c3c(Cl)cc(C#N)cc3Cl)C(=O)C2Sc2cc(C(C)(C)CC(C)(C)C)ccc2OCCCC)c(Cl)c1 (stereo not shown) [Coupler M5],Gamma,[2]; [9],3.8
"CCCCCCCCCCCCNS(=O)(=O)c1ccc(NC2=NN(c3c(Cl)cc(Cl)cc3Cl)C(=O)C2Sc2cc(C(C)(C)CC(C)(C)C)ccc2OCCCC)c(Cl)c1 (stereo not shown) [Coupler B3, reference compound]",λmax(nm) (+-0.5),[1]; [7],546.0 nm
same,λmax(nm) (+-0.5),[1]; [9],546.5 nm
same,Gamma,[2]; [7],4.7
same,Gamma,[2]; [9],4.5
same,Delta Dmin Process B-A,[3]; C2(1.0),0.071
same,Delta Dmin Process B-A,[3]; S1(1.0),0.191
same,Gamma,[4]; C2(1.0),1.78
same,Gamma,[4]; S1(1.0),2.10
same,λmax(nm),[5]; C2(1.0),544 nm
same,λmax(nm),[5]; S1(1.0),548 nm
CCCCCCCCCCCCOC(=O)c1ccc(NC2=NN(c3c(Cl)cc(S(=O)(=O)N4CCOCC4)cc3Cl)C(=O)C2Sc2cc(C(C)(C)CC(C)(C)C)ccc2OCCCC)c(Cl)c1 (stereo not shown) [Coupler M6],λmax(nm) (+-0.5),[1]; [8],548.5 nm
same,Gamma,[2]; [8],3.7
CCCCCCCCCCCCS(=O)(=O)c1cc(Cl)c(N2N=C(Nc3ccc(S(=O)(=O)N4CCOCC4)cc3Cl)C(Sc3cc(C(C)(C)CC(C)(C)C)ccc3OCCCC)C2=O)c(Cl)c1 (stereo not shown) [Coupler M15],λmax(nm) (+-0.5),[1]; [6],551.0 nm
same,Gamma,[2]; [6],3.4
"CCCCCCCCCCCCNS(=O)(=O)c1cc(Cl)c(N2N=C(Nc3ccc(Cl)cc3Cl)C(Sc3cc(C(C)(C)CC(C)(C)C)ccc3OCCCC)C2=O)c(Cl)c1 (stereo not shown) [Coupler B6, reference compound]",Gamma,[2]; [6],3.4
CCCCCCCCCCCCS(=O)(=O)c1ccc(NC2=NN(c3c(Cl)cc(S(C)(=O)=O)cc3Cl)C(=O)C2Sc2cc(C(C)(C)CC(C)(C)C)ccc2OCCCC)c(Cl)c1 (stereo not shown) [Coupler M10],λmax(nm) (+-0.5),[1]; [8],551.0 nm
same,Gamma,[2]; [8],3.2
"CCCCCCCCCCCCOC(=O)c1ccc(NC2=NN(c3c(Cl)cc(Cl)cc3Cl)C(=O)C2Sc2cc(C(C)(C)CC(C)(C)C)ccc2OCCCC)c(Cl)c1 (stereo not shown) [Coupler B4, reference compound]",Gamma,[2]; [8],4.1
CCCCCCCCCCCCOC(=O)c1ccc(NC2=NN(c3c(Cl)cc(S(C)(=O)=O)cc3Cl)C(=O)C2Sc2cc(C(C)(C)CC(C)(C)C)ccc2OCCCC)c(Cl)c1 (stereo not shown) [Coupler M7],λmax(nm) (+-0.5),[1]; [8],548.5 nm
same,Gamma,[2]; [8],3.1
"CCC(C)(C)c1ccc(OCC(=O)Nc2cccc(C(=O)NC3=NN(c4c(Cl)cc(Cl)cc4Cl)C(=O)C3)c2)c(C(C)(C)CC)c1 [Coupler B8, reference compound]",λmax(nm) (+-0.5),[1]; [7],555.0 nm
same,λmax(nm) (+-0.5),[1]; [8],553.0 nm
same,Gamma,[2]; [7],2.3
same,Gamma,[2]; [8],2.0
"CCCCCCCCCCCCNS(=O)(=O)c1ccc(NC2=NN(c3c(Cl)cccc3Cl)C(=O)C2Sc2cc(C(C)(C)CC(C)(C)C)ccc2OCCCC)c(Cl)c1 (stereo not shown) [Coupler B2, reference compound]",λmax(nm) (+-0.5),[1]; [7],542.0 nm
same,Gamma,[2]; [7],5.3
